Patent publication US20240390335A1, “PHARMACEUTICAL COMPOSITION CONTAINING BETA-LACTAM COMPOUND AND USE THEREOF” (priority 2021, published 2024)
Like-named read-outs stand apart in the source and are kept apart here.

Key:
Type in all cases: cell-based
[1] = tested on: drug-resistant Enterobacteriaceae strains; experiment: Checkerboard combination, summary over Enterobacteriaceae strains; settings: combined with avibactam; all of the 12 drug-resistant Enterobacteriaceae strains tested
Method: Mueller-Hinton broth (MH broth) medium, Trypticase Soy Broth (TSB Broth) medium, purchased from BD Difco, Cockeysville, MD, USA; • 96-well plate: Corning Costar, Cambridge, MA, USA; • Test method: the checkerboard dilution method was used for determination.
(1) Preparation of the test samples: 4 mg of each sample was taken and was prepared into a test solution at 2,048 μg/mL with MH broth, and the test solution was diluted two-fold in a 96-well plate to prepare solutions of a series of gradient concentrations.
(2) Preparation of a bacteria solution: The test strains were amplified by Trypticase Soy Broth (TSB Broth) according to the CLSI/NCCLS standard.
(3) Addition of the samples: 10 μL of the bacteria solution with a concentration of 6×10^5 CFU/mL was pipetted into each well of the 96-well plate. Each well contained the antibacterial drugs (the compound of formula (I-1) and the compound of formula (I-2)) diluted two-fold with broth and the aforementioned lactamase inhibitor or efflux pump inhibitor. […] The samples were mixed thoroughly. Three parallel experiments were set up for each concentration and the results were averaged. […]
(5) Calculation: The in vitro effect of each drug-inhibitor combination was analyzed by calculating the FICI value: FICI=(MIC of drug A in the combination/MIC of drug A alone)+ (MIC of drug B in the combination/MIC of drug B alone). […]

Enterobacter cloacae = experiment: MIC assay of individual compounds (microdilution, CLSI/NCCLS); settings: individual compound, read-out: MIC
Klebsiella pneumoniae = experiment: as above; settings: Klebsiella pneumoniae, read-out: MIC

With `CC1(C)[C@H](NC(=O)/C(=N\OC2(C(=O)O)CC2)c2csc(N)n2)C(=O)N1OS(=O)(=O)O` [Compound of formula (I-1)] the “change of MIC values on combination” value [1] was “significantly reduced”, the MIC (Enterobacter cloacae; ATCC2468, Enterobacter cloacae ATCC 2468) was 2 µg/mL and the MIC (Enterobacter cloacae; Enterobacter cloacae CCPM(A)-P-111719) was 1 µg/mL. It also gave an MIC (Klebsiella pneumoniae; ATCC2146, individual compound, Klebsiella pneumoniae ATCC 2146) of 2 µg/mL, an MIC (Klebsiella pneumoniae; ATCC700603, individual compound, Klebsiella pneumoniae ATCC 700603) of 4 µg/mL and an MIC (Klebsiella pneumoniae; individual compound, Klebsiella pneumoniae CCPM(A)-0814R18) of 2 µg/mL. The MIC (Klebsiella pneumoniae; individual compound, Klebsiella pneumoniae CCPM(A)-0814R33) was 2 µg/mL, the MIC (Klebsiella pneumoniae; individual compound, Klebsiella pneumoniae CCPM(A)-0817R61) was 64 µg/mL and the MIC (Klebsiella pneumoniae; individual compound, Klebsiella pneumoniae CCPM(A)-081301) was 2 µg/mL. The MIC (Klebsiella pneumoniae; individual compound, Klebsiella pneumoniae CCPM(A)-081705) was 2 µg/mL, the MIC (Klebsiella pneumoniae; individual compound, Klebsiella pneumoniae CCPM(A)-081715) was 2 µg/mL and the MIC (Klebsiella pneumoniae; individual compound, Klebsiella pneumoniae CCPM(A)-081716) was 128 µg/mL. The MIC (Klebsiella pneumoniae; individual compound, Klebsiella pneumoniae CCPM(A)-081729) was 2 µg/mL.
